Experimental findings from US10800834B2, “HER-1, HER-3 and IGF-1R compositions and uses thereof” (OHIO STATE INNOVATION FOUNDATION, priority 2013, dated 2020) are described below.

“Also recorded” adds a separate entry of the source.

Experiment [1] concerns BxPC-3, MCF-7 and JIMT-1 cancer cells. The experiment in a line: MTT proliferation assay with IGF-1R peptide mimics. Type of experiment: cell-based, human. To be noted: 25, 50, 100, 150 μg/ml, three days. As to the method: The effects of treatment with the IGF-1R peptide mimics were evaluated as inhibitors on proliferation of human pancreatic (BxPC-3) and breast (MCF-7 and JIMT-1) cancer cells. Ligand binding to the IGF-1 receptor results in activation that causes increase proliferation of the receptor and intracellular signaling. Accordingly, the effects of the IGF-1R peptide mimics on ligand binding inhibition and inhibition of cancer cell line proliferation were determined. To measure proliferation, the MTT assay was used where the cells were treated with the inhibitors at different concentrations and incubated for three days before adding MTT.
A general note: Formazan colour is commonly taken as a measure of viable cells.

Another experiment concerns the target T1, IGF-1R (Homo sapiens, UniProt P08069).
T1 construct: IGF-1 signaling in MCF-7, JIMT-1 and BxPC-3 cells were analyzed using protein lysates after treatment; endogenous in cells; host or cells: MCF-7, JIMT-1 (human breast cancer) and BxPC-3 (human pancreatic cancer) cells
Description: Human-phospho-IGF-1R sandwich ELISA. Type of experiment: cell-based. To be noted: MCF-7, JIMT-1 and BxPC-3 cells. As to the method:
The effects of chimeric peptides and antipeptide antibodies on IGF-1 signaling in MCF-7, JIMT-1 and BxPC-3 cells were analyzed using protein lysates after treatment and measurement of phosphorylated levels of the receptors in a sandwich ELISA method using Human-phospho-IGF-1R ELISA kit from R&D diagnostics. […] FIG. 22 A-C is treatment with peptide mimics and FIG. 22-D-F is treatment with peptide vaccine antibodies.
In general terms: In an ELISA, binding on a coated surface is turned into a signal by an enzyme label.

Experiment [2] relates to BxPC-3 pancreatic and JIMT-1 breast cancer cells. The experiment in a line: SCID transplantable breast and pancreatic mouse model, IGF-1R peptides. Type of experiment: in vivo. To be noted: 200 μg i.v. weekly for 7 weeks; P values <0.05. The procedure: To test the in vivo effects of the chimeric peptides, a transplantable breast and pancreatic mouse model was used. BxPC-3 pancreatic and JIMT-1 breast cancer cells were injected subcutaneously into the flanks of SCID mice. After tumor challenge, the mice were treated intravenously with the IGF-1R peptide mimics starting at day zero (day of tumor challenge) and weekly for a total of 7 weeks. Tumor growth was monitored twice weekly and at the end of treatment, all mice were euthanized and the tumors extracted and weighed and the percentage tumor weight calculated.

For experiment [3], the system named is New Zealand white outbred rabbits. Description: Immunogenicity of MVF HER-3 peptide constructs in rabbits (ELISA titers). Format: in vivo, rabbit. As to the method:
Two female New Zealand white outbred rabbits (Harlan) were immunized intramuscularly with 1 mg of MVF HER-3 (237-269) or MVF HER-3 (461-479) peptide dissolved in 500 μL PBS and emulsified in 500 μL of Montanide ISA720 vehicle with 100 μg muramyl dipeptide adjuvant, nor-MDP (N-acetylglucosamine-3yl-acetyl-L-alanyl-D-isoglutamine). Subsequent booster injections were given every three weeks after primary immunization. Sera of rabbits immunized with either MVF peptide were collected weekly, and complement was inactivated by heating to 56° C. for 30 minutes. The titer of anti-HER-3 peptide antibodies were quantified by ELISA. The MVF HER-3 (237-269) and MVF HER-3 (461-479) peptides were highly immunogenic by three weeks after the third immunization. Antibody titers against MVF HER-3 (461-479) and MVF HER-3 (237-269) were ≥32,000 and ≥128,000, respectively (FIGS. 9 A & B). High antibody titers were also generated against B cell epitope constructs. HER-3 (461-479) and HER-3 (237-269) antibody titers were ≥16,000 and ≥128,000, respectively (Data not shown). Total IgG was purified from high-titered sera on a protein A/G column (Pierce, Rockford, Ill.) and eluted antibodies were concentrated and exchanged in PBS using 100 kDa cutoff centrifuge filter units (Millipore). Antibody concentrations were determined by Coomassie plus protein assay reagent kit (Pierce).

The test system of experiment [4] is BXPC3 cells. Description: BALB/c SCID transplantable mouse model, BXPC3, HER-3 peptide mimics. The conditions noted are these: BXPC3, peptide mimics i.v. weekly. Format: in vivo. The procedure:
To test the in vivo effects of the peptide mimics, two transplantable mouse models were used. Mice 4-5 weeks old were challenged with either BXPC3 or JIMT-1 cells subcutaneously into the flank. After tumor challenge, mice were treated intravenously with the peptide mimics starting at day zero (day of tumor challenge) and weekly for a total of 8-9 treatments. Tumor growth was monitored twice weekly and at the end of treatment. All mice were euthanized and weighed. Tumors were also extracted and weighed. Results display tumor volume and % tumor weight (FIG. 16 A-D). Both peptide constructs had the ability to attenuate tumor growth in mice challenged with BXPC3 cells. […] As a result, only the HER-3 (461-479) peptide was used in JIMT-1 tumor model.

The test system of experiment [5] is BxPC3 cells. Description: MTT inhibition assay with HER-3 peptide mimics, BxPC3. Type of experiment: cell-based, human. To be noted: 72 hours, HRG stimulated. As to the method: The HER-3 peptide mimics and peptide vaccine antibodies may provide anti-tumor activity by blocking dimerization or ligand binding of the HER-3 receptor. To test the ability of the chimeric peptides to elicit antitumor effects, HER-3 positive cells were examined in a MTT inhibition assay. The anti-proliferative effects of the peptide mimics were tested at various concentrations (FIG. 13). Taxol, an inhibitor of mitosis, was used as a positive control (data not shown). Cells were seeded in 96 well flat bottom plates at 1×10^4 cells/well in 100 μl growth media and allowed to adhere overnight at 37° C. Media was removed from the wells and replaced with HER3 peptides made up in 1% growth media. Plates were incubated for 1 hour at 37° C., and subsequently stimulated with either 50 ng/mL HRG. Plates were incubated an additional 72 hours at 37° C. before 25 μL of 5 mg/mL MTT was added to each well. Plates were incubated for 2 hours at 37° C., then 100 μL extraction buffer (20% SDA, 50% DMF, pH 4.7) was added. Plates were incubated overnight at 37° C. and read on an ELISA reader at 570 nm. Percent inhibition was calculated by the following equation: (untreated-treated)/untreated×100. Error bars represent SEM of three separate experiments. […] The HER-3 peptide mimics inhibited proliferation of BXPC3, MCF-7 and JIMT-1 cell lines in a dose-dependent manner. […]

The test system of another experiment is Met-1 cells. Description: FVB/n Met-1 transplantable breast tumor model. Format: in vivo, mouse. The conditions noted are these: peptide mimics i.v. weekly; for tumor growth and development: vs untreated and irrelevant peptide. The procedure:
Antitumor effects of immunization with HER-1 peptide vaccines and chimeric peptides in Fvb/n breast cancer model The Fvb/n transplantable model of HER-family dependent breast cancer represents a good model for human breast cancer. The peptide vaccines were dissolved in water and emulsified in Montanide ISA 720 (1:1) and […] (N-acetylglucosamine-3yl-acetyl-1-alanyl-D-isoglutamine). Female wild-type FVB/n mice (Charles River Laboratories) at the age of 5 to 6 weeks were immunized three times at 3-week intervals with […], and 14 days after the third immunization, the mice were challenged s.c. with Met-1 cells (200,000 per mouse). Met-1 cells were derived from the PyMT-transgenic mouse model with FVB/n background. Tumor growth was monitored for up to 6 weeks after challenge. During immunization, blood was drawn biweekly and used in ELISA to monitor Ab titers. In the case of treatment with the chimeric peptides, the mice were simply challenged with Met-1 cells and treated weekly i.v. with […] for up to 6 weeks beginning at day 0. The mice were euthanized at the end of treatment and tumors extracted and weighed.
Tumor tissues were formalin fixed, embedded in paraffin, and stained immunohistochemically for CD31 and Ki-67. The tissue blocks were cut into […], deparaffinized in xylol, and then rehydrated with different grades of alcohol. The rehydrated sections were then washed with distilled water and placed in a microwave oven for 15 minutes. The slides were then blocked and incubated for 40 minutes at 20° C. with primary Abs specific for Ki-67 and CD31.
To evaluate the inhibitory effects of the peptide vaccines in vivo, the FVB/n transplantable mouse model was used in which Met-1 cells from FVB/n background were injected in the mammary fat pad of wild-type FVB/n mice after immunization with the chimeric MVF HER-1 peptides as shown in the immunization schedule (data not shown). Tumor development in this model is dependent on the HER family receptor overexpression. All mice were immunized at 5 to 6 weeks of age and received two boosters at 3-week intervals. As depicted in FIG. 5, the vaccine constructs were immunogenic in the mice, and all of the mice had relatively high titers of the Abs (greater than 40,000). Mice were challenged with Met-1 cells and monitored weekly for 6 weeks.
To test the in vivo effects of the peptide mimics, the same FVB/n model was used as in the case of immunization, but in this experiment, wild-type mice were challenged with Met-1 cells and treated i.v. with the peptide mimics. […] In assessing how the peptide inhibitors exert their effects in vivo, the tumor sections were analyzed after treatment with the peptide mimics for blood vessel density and actively proliferating cells. […] The effect on proliferating cells was most evident in the case of treatment with the 382-410 and the 418-435 constructs (FIG. 7C).

The next experiment concerns A549 lung cancer cells. The experiment in a line: BALB/c SCID transplantable lung tumor model. The conditions noted are these: i.v. weekly, peptide mimics or cetuximab. More on the design: dose or concentration left out as unconfirmed. Format: in vivo, mouse. The procedure: […] Tumor growth was measured twice weekly using vernier calipers, and at the end of the experiment, the tumors were extracted and weighed.

Experiment [6] can be described thus: Immunization of transgenic mice with chimeric peptides (summary statement). The conditions noted are these: immunization of transgenic mice with one or more of the chimeric peptides. Type of experiment: in vivo, mouse.

In the case of “ACPPNTYRFEGWRCVDRDF (Ac-ACPPNTYRFEGWRCVDRDF-NH2; cysteine pairing not given here; listed as Homo sapiens) [IGF-1R (234-252), peptide mimic acetylated and amidated]”, the “inhibition of proliferation (MTT)” value in experiment [1] is “inhibition of all three cell lines which was dose dependent; also recorded: dose-dependent inhibition of proliferation”. Also, the “phosphorylated IGF-1R, treatment with peptides” value with IGF-1R was “able to downregulate the expression of phosphorylated IGF-1R”. The percentage tumor weight entry in experiment [2] is on record as “significantly decreased the percentage tumor weight”.
For “ERLDIKHNRPRRDCVAEGK (Ac-ERLDIKHNRPRRDCVAEGK-NH2; listed as Homo sapiens) [HER-3 (461-479), peptide mimic acetylated and amidated]”, in experiment [3] (sera of rabbits immunized with MVF HER-3 peptides, data not shown), the “antibody titers against B cell epitope constructs” value is ≥ 16,000. Further, in the experiment on BXPC3 cells [4], the “% tumor weight” value was “significantly decreased the % tumor weight” and the tumor growth entry was “greater anti-tumor effects”.
Take “FVMLNYNTNSSHALRQLRLTQLTE (Ac-FVMLNYNTNSSHALRQLRLTQLTE-NH2; listed as Homo sapiens) [HER-3 (99-122), peptide mimic acetylated and amidated]”: the “Percent inhibition of proliferation” value with BxPC3 cells [5] is ~80%.
As for “KIEFMYPPPYLDNERSNGTI [irrelevant peptide, negative control peptide, reference compound]”, the “tumor growth and development” value in the experiment on Met-1 cells was “no inhibitory effects”.
For “LIQAWPENRTDLHAFENLEIIRGRTKQHG (Ac-LIQAWPENRTDLHAFENLEIIRGRTKQHG-NH2; listed as Homo sapiens) [HER-1 (382-410), peptide mimic acetylated and amidated]”, the “tumor growth and development” value in the experiment with A549 lung cancer cells is “significantly delayed tumor growth and development”. For the same substance, in the experiment with Met-1 cells, the “delay in tumor onset” value was “approximately 2 weeks”, the “microvascular density (CD31) in tumor sections” value is “significant reduction in microvascular density”, the percentage tumor weight entry is on record as “greater inhibitory effects” and the “proliferating cells (Ki-67) in tumor sections” value is “most evident”. Further, the “tumor growth and development” value in the experiment on Met-1 cells is “decrease in tumor growth and development”.
“LLFRVAGLESLGDLFPNLTVIRGWKL (Ac-LLFRVAGLESLGDLFPNLTVIRGWKL-NH2; listed as Homo sapiens) [IGF-1R (56-81), peptide mimic acetylated and amidated]”: the “inhibition of proliferation (MTT)” value in experiment [1] is listed as “inhibition of all three cell lines which was dose dependent; also recorded: dose-dependent inhibition of proliferation”. Further, the “phosphorylated IGF-1R, treatment with peptides” value with IGF-1R is “able to downregulate the expression of phosphorylated IGF-1R”. The percentage tumor weight result in experiment [2] is recorded as “significantly decreased the percentage tumor weight”.
For “MVF HER-3 (461-479): HER-3 (461-479) synthesized collinearly with modified MVF epitope (SEQ ID NO:12) and GPSL linker (KLLSLIKGVIVHRLEGVEGPSLERLDIKHNRPRRDCVAEGK)”, in [3] (three weeks after the third immunization), the “Antibody titers against MVF peptide” value is reported as ≥ 32,000. In addition, the “tumor growth after immunization” value in experiment [6] is recorded as “significant delay of tumor growth”.
As to “SLNITSLGLRSLKEISDG (Ac-SLNITSLGLRSLKEISDG-NH2; listed as Homo sapiens) [HER-1 (418-435), peptide mimic acetylated and amidated]”, the “tumor growth and development” value in the experiment on A549 lung cancer cells was “significantly delayed tumor growth and development”. Also, in the experiment on Met-1 cells, the “delay in tumor onset” value is “approximately 2 weeks”, the “microvascular density (CD31) in tumor sections” value is recorded as “significant reduction in microvascular density”, the percentage tumor weight entry is “greater inhibitory effects” and the “proliferating cells (Ki-67) in tumor sections” value is reported as “most evident”. Further, the “tumor growth and development” value in the experiment with Met-1 cells is “decrease in tumor growth and development”.
